Biological target: T1, Recombinant human H-PGDS (Homo sapiens, UniProt O60760)
T1 construct: made in house; host or cells: E. coli
Test: H-PGDS inhibitory activity (prostaglandin D2 production from prostaglandin H2, measured by LC-MS/MS)
Assay type: biochemical
Settings: recombinant human H-PGDS 1.0 nM expressed in E. coli; prostaglandin H2 25 μM; preincubated 15 minutes on ice, reacted on ice for 1 minute; concentration that inhibits prostaglandin D2 production by 50%
Protocol: The H-PGDS inhibitory activity of each Example compound was measured according to the method reported by LIN, Jiang. et al. (NO 2007/041634).
Recombinant human H-PGDS (final concentration: 1.0 nM) expressed in E. coli was mixed in an assay buffer containing 20 mM Tris-HCl (pH 8.0), 2 mM magnesium chloride, 2 mM reduced glutathione, and 0.5 mg/mL γ-globulin, and 150 μL of the mixture was dispensed into a 8-strip PCR tube (BM Equipment Co., Ltd.). Test compounds (Example compounds) (16.5 μL) at various concentrations dissolved in DMSO were added and the mixture was preincubated for 15 minutes on ice.
Prostaglandin H2 (final concentration: 25 μM) (Cayman Chemical) was dispensed into another 8-strip PCR tube, and the solvent was dried and solidified using a vacuum concentrator (Thermo Fisher Scientific). To the dried and solidified prostaglandin H2 was added 50 μL of the assay buffer containing H-PGDS and each test compound after the preincubation, and the mixture was reacted on ice for 1 minute. 45 μL of this mixture was added to 45 μL of a stop solution (50 mM aqueous citric acid solution containing iron chloride at a final concentration of 4 mg/mL) to stop the reaction. Then, the reaction solution was deproteinized, added to a 96 square deep well plate (SHONANMARUHACHI STEC Co., Ltd.), and the prostaglandin D2 concentration in the reaction solution was measured by LC-MS/MS. ACQUITY (registered trademark) TQD (Waters) was used as a measuring instrument.
Prostaglandin Da production activity (f) in the group with each test compound when a value obtained by subtracting the amount of production of prostaglandin D2 in the group without enzyme, which is non-specific production of prostaglandin D2, from the amount of production of prostaglandin Da in the group without test compound (DMSO-addition group) in each 8-strip PCR tube is 100% was calculated.

T1 sequence (O60760 whole entry): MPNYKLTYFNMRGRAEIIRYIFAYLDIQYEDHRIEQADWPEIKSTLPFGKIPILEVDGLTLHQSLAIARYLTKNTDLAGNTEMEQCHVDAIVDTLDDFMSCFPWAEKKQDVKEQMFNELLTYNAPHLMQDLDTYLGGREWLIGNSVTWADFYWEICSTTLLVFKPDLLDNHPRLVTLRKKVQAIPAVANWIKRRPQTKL

Structure (SMILES) | IC50 [nM]
O=C(Nc1ccc(N2CCC(C(=O)N3CCOCC3)CC2)cc1)c1ccc(-c2nccc3occc23)cc1 [Example 222, 4-(furo[3,2-c]pyridin-4-yl)-N-(4-[4-(morpholine-4-carbonyl)piperidin-1-yl]phenyl)benzamide] | 2.3
CC(O)CNC(=O)c1ccc(-c2nccc3occc23)cc1 (stereo not shown) [Example 68, 4-(furo[3,2-c]pyridin-4-yl)-N-(2-hydroxypropyl) benzamide] | 15
O=C(NC[C@H]1CC[C@@H](O)CC1)c1ccc(-c2nccc3occc23)cc1 [Example 114, 4-(furo[3,2-c]pyridin-4-yl)-N-[(cis-4-hydroxycyclohexyl)methyl]benzamide] | 25
NS(=O)(=O)c1cccc(NC(=O)c2ccc(-c3nccc4occc34)cc2)c1 [Example 105, 4-(furo[3,2-c]pyridin-4-yl)-N-(3-sulfamoylphenyl) benzamide] | 2.3
CC(N[C@H]1CC[C@H](NC(=O)c2ccc(-c3nccc4occc34)cc2)CC1)C(F)F (stereo partly drawn) [Example 302, N-{trans-4-[(1,1-difluoropropan-2-yl)amino]cyclohexyl}-4-(furo[3,2-c]pyridin-4-yl)benzamide] | 3.2
O=C(N[C@H]1CCN(c2ccc(Cl)nn2)C1)c1ccc(-c2nccc3occc23)cc1 [Example 228, (S)—N-[1-(6-chloropyridazin-3-yl)pyrrolidin-3-yl]-4-(furo[3,2-c]pyridin-4-yl)benzamide] | 1.9
Cc1cc2occc2c(-c2ccc(C(=O)NC3CCN(c4nnnn4C)CC3)cc2)n1 [Example 330, N-[1-(1-methyl-1H-tetrazol-5-yl)piperidin-4-yl]-4-(6-methylfuro[3,2-c]pyridin-4-yl)benzamide] | 1.7
O=C(NC12CCC(O)(CC1)CC2)c1ccc(-c2nccc3occc23)cc1 [Example 260, 4-(furo[3,2-c]pyridin-4-yl)-N-(4-hydroxybicyclo[2.2.2]octan-1-yl)benzamide] | 1.9
CC(C)(O)CO[C@H]1CC[C@H](NC(=O)c2ccc(-c3nccc4occc34)c(F)c2)CC1 [Example 329, 3-fluoro-4-(furo[3,2-c]pyridin-4-yl)-N-[trans-4-(2-hydroxy-2-methylpropoxy)cyclohexyl]benzamide] | 2
Cn1c(N2CCC(NC(=O)c3ccc(-c4nccc5occc45)cc3)CC2)cccc1=O [Example 184, 4-(furo[3,2-c]pyridin-4-yl)-N-[1-(1-methyl-6-oxo-1,6-dihydropyridin-2-yl)piperidin-4-yl]benzamide] | 2.1
O=C(NC1CCN(c2nccc(N3CCC3)n2)CC1)c1ccc(-c2nccc3occc23)cc1 [Example 178, N-{1-[4-(azetidin-1-yl)pyrimidin-2-yl]piperidin-4-yl}-4-(furo[3,2-c]pyridin-4-yl)benzamide] | 1.9
O=C(NC1C2CC3CC1CC(O)(C3)C2)c1ccc(-c2nccc3occc23)cc1 (stereo not drawn) [Example 272, 4-(furo[3,2-c]pyridin-4-yl)-N-(trans-5-hydroxyadamantan-2-yl)benzamide] | 2.4
O=C(NC1CCN(c2ncc(Br)cn2)CC1)c1ccc(-c2nccc3occc23)cc1 [Example 154, N-[1-(5-bromopyrimidin-2-yl)piperidin-4-yl]-4-(furo[3,2-c]pyridin-4-yl)benzamide] | 6.3
CC(O)[C@@H]1CC[C@@H](NC(=O)c2ccc(-c3nccc4occc34)cc2)CO1 (stereo partly drawn) [Example 212, 4-(furo[3,2-c]pyridin-4-yl)-N-[(3R,6S)-6-(1-hydroxyethyl)tetrahydro-2 H-pyran-3-yl]benzamide] | 3.8
CC(C)(O)[C@H]1CC[C@H](NC(=O)c2ccc(-c3ncc(C(N)=O)c4occc34)cc2)CC1 [Example 140, 4-(4-([trans-4-(2-hydroxypropan-2-yl)cyclohexyl]carbamoyl)phenyl)furo[3,2-c]pyridine-7-carboxamide] | 224
CC(C)(O)[C@H]1CC[C@H](NC(=O)c2ccc(-c3nc(CO)cc4occc34)c(F)c2)CC1 [Example 322, 3-fluoro-4-[6-(hydroxymethyl)furo[3,2-c]pyridin-4-yl]-N-[trans-4-(2-hydroxypropan-2-yl)cyclohexyl]benzamide] | 3.2

Stronger by IC50, values ahead:

IC50 [nM] | Structure (SMILES)
1.6 | O=C(N[C@H]1CC[C@H](C2(O)CC2)CC1)c1ccc(-c2nccc3occc23)cc1 [Example 257, 4-(furo[3,2-c]pyridin-4-yl)-N-[trans-4-(1-hydroxycyclopropyl)cyclohexyl]benzamide]
1.6 | CC(C)N(CCNC(=O)c1ccc(-c2nccc3[nH]ccc23)cc1)C(C)C [Example 25, N-[2-(diisopropylamino)ethyl]-4-(1H-pyrrolo[3,2-c]pyridin-4-yl)benzamide]
1.3 | N#CC12CCC(NC(=O)c3ccc(-c4nccc5occc45)cc3)(CC1)CC2 [Example 351, N-(4-cyanobicyclo[2.2.2]octan-1-yl)-4-(furo[3,2-c]pyridin-4-yl)benzamide]
1.5 | O=C(NC12CCC(O)(CC1)C2)c1ccc(-c2nccc3occc23)cc1 [Example 349, 4-(furo[3,2-c]pyridin-4-yl)-N-(4-hydroxybicyclo[2.2.1]heptan-1 yl)benzamide]
1.6 | O=C(NC1CCCCC1)c1ccc(-c2nccc3[nH]ccc23)cc1 [Example 5, N-cyclohexyl-4-(1H-pyrrolo[3,2-c]pyridin-4-yl)benzamide]
1 | O=C(NCC1CCCCC1)c1ccc(-c2nccc3[nH]ccc23)cc1 [Example 19, N-(cyclohexyl-methyl)-4-(1H-pyrrolo[3,2-c]pyridin-4-yl)benzamide]
1.3 | Cc1cc(CNC(=O)c2ccc(-c3nccc4[nH]ccc34)cc2)nn1C [Example 38, N-[(1,5-dimethyl-1H-pyrazol-3-yl)methyl]-4-(1H-pyrrolo[3,2-c]pyridin-4-yl)benzamide]
0.58 | O=C(NC1CCC1)c1ccc(-c2nccc3[nH]ccc23)cc1 [Example 13, N-cyclobutyl-4-(1H-pyrrolo[3,2-c]pyridin-4-yl)benzamide]
1.2 | O=C(NC12CC3CC(CC(O)(C3)C1)C2)c1ccc(-c2nccc3occc23)cc1 [Example 271, 4-(furo[3,2-c]pyridin-4-yl)-N-(3-hydroxyadamantan-1-yl)benzamide]
0.79 | COCCNC(=O)c1ccc(-c2nccc3[nH]ccc23)cc1 [Example 23, N-(2-methoxyethyl)-4-(1H-pyrrolo[3,2-c]pyridin-4-yl)benzamide]
1.6 | CCCn1nnnc1N1CCC(NC(=O)c2ccc(-c3nccc4occc34)cc2)CC1 [Example 240, 4-(furo[3,2-c]pyridin-4-yl)-N-[1-(1-propyl-1H-tetrazol-5-yl)piperidin-4-yl]benzamide]
1.1 | O=C(NC1CCCC1)c1ccc(-c2nccc3[nH]ccc23)cc1 [Example 12, N-cyclopenthyl-4-(1H-pyrrolo[3,2-c]pyridin-4-yl)benzamide]
1.5 | Cc1ccnc(N2CCC(NC(=O)c3ccc(-c4nccc5occc45)cc3)CC2)n1 [Example 155, 4-(furo[3,2-c]pyridin-4-yl)-N-[1-(4-methylpyrimidin-2-yl)piperidin-4-yl]benzamide]
1.3 | CC(C)(O)C1CC2(CC(NC(=O)c3ccc(-c4nccc5occc45)cc3)C2)C1 (stereo not shown) [Example 122, 4-(furo[3,2-c]pyridin-4-yl)-N-[6-(2-hydroxypropan-2-yl)spiro[3.3]heptan-2-yl]benzamide]
1.4 | O=C(NCc1cccc(Cl)c1)c1ccc(-c2nccc3[nH]ccc23)cc1 [Example 57, N-(3-chlorobenzyl)-4-(1H-pyrrolo[3,2-c]pyridin-4-yl)benzamide]
0.99 | CC(C)NC(=O)c1ccc(-c2nccc3[nH]ccc23)cc1 [Example 15, N-isopropyl-4-(1H-pyrrolo[3,2-c]pyridin-4-yl)benzamide]
1.6 | Cn1nnnc1N1CCC(NC(=O)c2ccc(-c3nccc4occc34)cc2)CC1 [Example 99, 4-(furo[3,2-c]pyridin-4-yl)-N-[1-(1-methyl-1H-tetrazol-5-yl)piperidin-4-yl]benzamide]
1.1 | CCC(O)CNC(=O)c1ccc(-c2nccc3[nH]ccc23)cc1 (stereo not shown) [Example 33, N-(2-hydroxybutyl)-4-(1H-pyrrolo[3,2-c]pyridin-4-yl)benzamide]
1.4 | O=C(N[C@H]1CC[C@@H](OCC2(O)CC2)CC1)c1ccc(-c2nccc3occc23)cc1 [Example 353, 4-(furo[3,2-c]pyridin-4-yl)-N-(cis-4-[(1-hydroxycyclopropyl)methoxy]cyclohexyl)benzamide]
1.5 | O=C(NC1CCN(c2ncc(CO)o2)CC1)c1ccc(-c2nccc3occc23)cc1 [Example 255, 4-(furo[3,2-c]pyridin-4-yl)-N-{1-[5-(hydroxymethyl)oxazol-2-yl]piperidin-4-yl}benzamide]
1.5 | O=C(N[C@H]1CCN(c2ccncn2)C1)c1ccc(-c2nccc3occc23)cc1 [Example 229, (S)-4-(furo[3,2-c]pyridin-4-yl)-N-[1-(pyrimidin-4-yl)pyrrolidin-3-yl]benzamide]
